Reference: patent US11548875B2, “Inhibitor compounds for male contraception” (University of Washington, priority 2018, dated 2023)
Counter-ions that a name gives are not always drawn. Like-named read-outs stand apart in the source and are kept apart here.

Key:
[1] = molecular target: T1, ALDH1A1 (Homo sapiens, UniProt P00352); experiment: Cell-based enzyme assay, retinoic acid production in ALDH1A1/H1299 cells
T1 sequence (P00352 1-501): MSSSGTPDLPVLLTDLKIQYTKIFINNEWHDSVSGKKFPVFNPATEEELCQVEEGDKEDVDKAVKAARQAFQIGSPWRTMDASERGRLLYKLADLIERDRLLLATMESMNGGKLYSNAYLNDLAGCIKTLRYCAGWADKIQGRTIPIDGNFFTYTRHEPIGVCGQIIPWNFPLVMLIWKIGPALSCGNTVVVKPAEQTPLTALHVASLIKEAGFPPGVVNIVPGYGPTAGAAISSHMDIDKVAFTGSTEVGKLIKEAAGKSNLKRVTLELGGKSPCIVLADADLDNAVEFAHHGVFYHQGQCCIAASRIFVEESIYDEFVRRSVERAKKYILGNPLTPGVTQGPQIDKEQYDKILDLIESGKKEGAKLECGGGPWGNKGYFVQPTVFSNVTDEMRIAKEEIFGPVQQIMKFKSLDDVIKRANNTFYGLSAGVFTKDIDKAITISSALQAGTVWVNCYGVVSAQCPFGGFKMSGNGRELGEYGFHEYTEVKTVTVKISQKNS
In short: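 ALDH1A1- or ALDH1A2-stably transfected H1299 cells grown to confluence, then treated 20 h in serum-free RPMI-1640 with 2 μM all-trans-retinal plus varying inhibitor concentrations at 37 °C. Retinoic acid in cells and media quantified; inhibition from RA levels with vs without inhibitor.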

[2] = molecular target: T2, ALDH2 (Homo sapiens, UniProt P05091); experiment: Purified ALDH2 assay with propanal, NADH fluorescence; assay type: biochemical; conditions: purified enzyme
T2 construct: histidine-tag (N); made in house; host or cells: bacterial expression (pETite vector, IPTG induction)
T2 sequence (P05091 18-517): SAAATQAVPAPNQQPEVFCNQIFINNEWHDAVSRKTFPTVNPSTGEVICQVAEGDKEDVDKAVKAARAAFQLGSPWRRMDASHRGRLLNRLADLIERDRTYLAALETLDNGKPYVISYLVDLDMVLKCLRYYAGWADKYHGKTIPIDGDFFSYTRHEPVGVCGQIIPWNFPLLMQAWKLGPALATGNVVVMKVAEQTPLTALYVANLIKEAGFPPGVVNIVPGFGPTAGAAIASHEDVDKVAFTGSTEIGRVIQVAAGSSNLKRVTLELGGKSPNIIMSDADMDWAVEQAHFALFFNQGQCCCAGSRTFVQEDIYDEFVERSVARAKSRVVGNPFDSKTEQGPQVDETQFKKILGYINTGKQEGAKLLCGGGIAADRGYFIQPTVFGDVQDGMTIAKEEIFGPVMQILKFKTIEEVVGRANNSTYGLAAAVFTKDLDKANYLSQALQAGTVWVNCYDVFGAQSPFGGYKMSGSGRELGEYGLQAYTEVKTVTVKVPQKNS
In short: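 His-tagged human ALDH2 expressed in bacteria and purified. 2 μg enzyme incubated with 20 μM propanal and varying inhibitor concentrations at room temperature. Activity read as NADH fluorescence (Ex 350/Em 460 nm), with initial velocity from two consecutive readings over 1 minute.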

Row | Compound | EC50 ([1]; cell-based) [µM] | IC50 [2] [µM] | EC50 [1] [µM]
1 | CS(=O)(=O)c1ccc(-c2nn(-c3cccc(C#N)c3)cc2C(=O)Nc2ccc(F)c(F)c2)cc1 [Compound 269, 1-(3-Cyanophenyl)-N-(3,4-difluorophenyl)-3-[4-(methylsulfonyl)phenyl]-1H-pyrazole-4-carboxamide] | 3.56 | 67.7 | 
2 | CCOc1ccsc1C(=O)N1CCN(c2ccc([N+](=O)[O-])c(N3CCCC3)c2)CC1 [Compound 326, {4-[4-Nitro-3-(pyrrolidin-1-yl)phenyl]piperazin-1-yl}(3-ethoxythiophen-2-yl)methanone] |  | 97.3 | 0.44
3 | CS(=O)(=O)c1ccc(-c2nn(-c3ccc(Cl)cc3)cc2C(=O)Nc2ccccc2O)cc1 [Compound 233, N-(2-Hydroxyphenyl)-3-[4-(methylsulfonyl)phenyl]-1-(4-chloropheny)-1H-pyrazole-4-carboxamide] | 13.2 | 87.2 | 
4 | CS(=O)(=O)c1ccc(-c2nn(-c3ccccc3)cc2C(=O)Nc2cccc(Cl)c2)cc1 [Compound 219, 3-(4-(Methylsulfonyl)phenyl)-N-(3-chlorophenyl)-1-phenyl-1H-pyrazole-4-carboxamide] | > 20 | > 25 | 
5 | CS(=O)(=O)c1ccc(-c2nn(-c3cccc(F)c3)cc2C(=O)Nc2cccc(C(F)(F)F)c2)cc1 [Compound 266, 1-(3-Fluorophenyl)-N-(3-trifluoromethylphenyl)-3-[4-(methylsulfonyl)phenyl]-1H-pyrazole-4-carboxamide] | > 20 | 100 | 
6 | CS(=O)(=O)c1ccc(-c2nn(-c3ccccc3)cc2C(=O)Nc2cccc(F)c2)cc1 [Compound 178, 3-(4-(Methylsulfonyl)phenyl)-N-(3-fluorophenyl)-1-phenyl-1H-pyrazole-4-carboxamide] | 5.5 | 20.9 | 
7 | CS(=O)(=O)c1ccc(-c2nn(-c3ccc(F)cc3)cc2C(=O)Nc2cccc(F)c2)cc1 [Compound 241, N-(3-Fluorophenyl)-3-[4-(methylsulfonyl)phenyl]-1-(4-fluorophenyl)-1H-pyrazole-4-carboxamide] | 10.9 | 16.6 | 
8 | COc1ccsc1C(=O)N1CCN(c2ccc([N+](=O)[O-])c(N3CCCC3)c2)CC1 [Compound 329, {4-[4-Nitro-3-(pyrrolidin-1-yl)phenyl]piperazin-1-yl}(3-methoxythiophen-2-yl)methanone] |  | 86.4 | < 0.5
9 | CS(=O)(=O)c1ccc(-c2nn(-c3ccccc3)cc2C(=O)Nc2cccc(O)c2)cc1 [Compound 211, 3-(4-(Methylsulfonyl)phenyl)-N-(3-hydroxyphenyl)-1-phenyl-1H-pyrazole-4-carboxamide] | 2 | 15.5 | 
10 | CS(=O)(=O)c1ccc(-c2nn(-c3ccc(C#N)cc3)cc2C(=O)Nc2cccc(C(F)(F)F)c2)cc1 [Compound 262, 1-(4-Cyanophenyl)-N-(3-trifluoromethylphenyl)-3-[4-(methylsulfonyl)phenyl]-1H-pyrazole-4-carboxamide] | > 20 | 16.7 | 
11 | 3-{4-[(Chloroacetyl)amino]phenyl}-N-(3-fluorophenyl)-1-phenyl-1H-pyrazole-4-carboxamide [Compound 294] | < 0.005 | 24.4 | 

Continued, values first:

Row | EC50 ([1]; cell-based) [µM] | IC50 [2] [µM] | EC50 [1] [µM] | Compound
12 |  | 3.5 | 0.069 | Cn1cccc1C(=O)N1CCN(c2ccc(NC(=O)CCl)c(N3CCCC3)c2)CC1 [Compound 372, 1-[4-(4-N-Chloroacetyl-3-(pyrrolidin-1-yl)phenyl]piperazin-1-yl](1-methyl-1H-pyrrol-2-yl)methanone]
13 |  | 24.9 | 0.088 | Nc1ccsc1C(=O)N1CCN(c2ccc([N+](=O)[O-])c(N3CCCC3)c2)CC1 [Compound 331, {4-[4-Nitro-3-(pyrrolidin-1-yl)phenyl]piperazin-1-yl}(3-aminothiophen-2-yl)methanone hydrochloride]
14 |  | > 100 | 0.26 | O=C(c1ccc(F)s1)N1CCN(c2ccc([N+](=O)[O-])c(N3CCCC3)c2)CC1 [Compound 334, {4-[4-Nitro-3-(pyrrolidin-1-yl)phenyl]piperazin-1-yl}(5-fluorothiophen-2-yl)methanone]
15 |  | 48.1 | 0.333 | O=C(c1ccccc1)N1CCN(c2ccc([N+](=O)[O-])c(N3CCCC3)c2)CC1 [Compound 339, Phenyl-1-{4-[4-nitro-3-(pyrrolidin-1-yl)phenyl]piperazin-1-yl}methanone]
16 |  | 58.3 | 0.413 | CC(=O)Nc1ccsc1C(=O)N1CCN(c2ccc([N+](=O)[O-])c(N3CCCC3)c2)CC1 [Compound 332]
17 |  | 48.6 | < 0.5 | O=C(c1ccc[nH]1)N1CCN(c2ccc([N+](=O)[O-])c(N3CCCC3)c2)CC1 [Compound 344, {4-[4-Nitro-3-(pyrrolidin-1-yl)phenyl]piperazin-1-yl}(1H-pyrrol-2-yl)methanone]
18 |  | > 100 | < 0.5 | CN(C)c1ccc(C(=O)N2CCN(c3ccc([N+](=O)[O-])c(N4CCCC4)c3)CC2)cc1 [Compound 346, 4-Dimethylaminophenyl-1-{4-[4-nitro-3-(pyrrolidin-1-yl)phenyl]piperazin-1-yl}methanone]
19 |  | > 100 | < 0.5 | COc1ccc(C(=O)N2CCN(c3ccc([N+](=O)[O-])c(N4CCCC4)c3)CC2)cc1 [Compound 345, 4-Methoxyphenyl-1-{4-[4-nitro-3-(pyrrolidin-1-yl)phenyl]piperazin-1-yl}methanone]
